{"source": "paper PMC11619978", "about": "(Heliyon, 2024)", "key": {"α-glucosidase": {"target": "α-glucosidase (Homo sapiens, UniProt P10253)", "assay": "enzymatic kinetic study on α-glucosidase", "type": "biochemical", "settings": "for mode of α-glucosidase inhibition: Lineweaver-Burk plot"}, "α-amylase": {"target": "T1, α-amylase (Homo sapiens, UniProt P04746)", "T1 sequence (P04746 16-511)": "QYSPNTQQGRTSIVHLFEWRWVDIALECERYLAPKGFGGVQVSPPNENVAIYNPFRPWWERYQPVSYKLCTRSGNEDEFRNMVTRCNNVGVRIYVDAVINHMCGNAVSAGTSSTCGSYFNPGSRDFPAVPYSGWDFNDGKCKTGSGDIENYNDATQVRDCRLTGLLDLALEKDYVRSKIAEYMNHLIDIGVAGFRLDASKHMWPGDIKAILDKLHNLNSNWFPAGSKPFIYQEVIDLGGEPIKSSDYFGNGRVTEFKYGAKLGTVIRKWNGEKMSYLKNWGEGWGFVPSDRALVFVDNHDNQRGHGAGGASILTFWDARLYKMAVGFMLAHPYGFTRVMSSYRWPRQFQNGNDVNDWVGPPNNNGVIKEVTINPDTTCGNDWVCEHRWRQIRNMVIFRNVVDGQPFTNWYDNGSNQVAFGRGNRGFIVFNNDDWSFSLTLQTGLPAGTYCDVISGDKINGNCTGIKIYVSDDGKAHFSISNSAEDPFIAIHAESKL", "assay": "enzymatic kinetic study on α-amylase", "type": "biochemical", "settings": "for mode of α-amylase inhibition: Lineweaver-Burk plot"}, "[1]": {"target": "T2, human pancreatic α-amylase (Homo sapiens, UniProt P04746)", "T2 sequence (P04746 16-511)": "T1 sequence (P04746 16-511)", "assay": "α-amylase inhibition assay", "type": "biochemical"}, "[2]": {"target": "human lysosomal acid-α-glucosidase (Homo sapiens, UniProt P10253)", "assay": "α-glucosidase inhibition assay", "type": "biochemical"}, "female mice": {"tested_on": "female mice", "assay": "acute oral toxicity", "type": "in vivo", "settings": "three female mice"}}, "note": "“Also recorded” adds a separate entry of the source.", "data": [{"compound": "C[C@H]1O[C@H](O[C@H]2[C@H](O)[C@@H](O)[C@@H](O[C@H]3[C@H](O)[C@@H](O)C(O)O[C@@H]3CO)O[C@@H]2CO)[C@H](O)[C@@H](O)[C@@H]1N[C@H]1C=C(CO)[C@@H](O)[C@H](O)[C@H]1O", "note": "(stereo partly drawn) [Acarbose, reference compound]", "values": [{"measurement": "mode of α-glucosidase inhibition", "setting": "α-glucosidase", "result": "competitive; also recorded: compete with the substrate for binding to the active site"}, {"measurement": "mode of α-amylase inhibition", "setting": "α-amylase", "result": "competitive"}]}, {"compound": "CC(C)[C@@H]1CC[C@@H](C)C[C@@]12N(C)C(=O)[C@@H]1C[C@@H](Cc3cccc(/C=N/NC(N)=S)c3O)ON12", "note": "[5e]", "values": [{"measurement": "IC50", "setting": "[1]", "result": "33.9 ± 1.09", "unit": "µM"}, {"measurement": "IC50", "setting": "[2]", "result": "49.3 ± 2.19", "unit": "µM"}]}, {"compound": "CC(C)[C@@H]1CC[C@@H](C)C[C@@]12N(C)C(=O)[C@@H]1C[C@@H](Cc3cccc(/C=N/NC(=S)N(C)C)c3O)ON12", "note": "[5d]", "values": [{"measurement": "IC50", "setting": "[1]", "result": "58.8 ± 2.22", "unit": "µM"}, {"measurement": "IC50", "setting": "[2]", "result": "98.6 ± 4.35", "unit": "µM"}]}, {"compound": "CC(C)[C@@H]1CC[C@@H](C)C[C@@]12N(C)C(=O)[C@@H]1C[C@@H](Cc3cccc(/C=N/NC(=S)Nc4ccccc4)c3O)ON12", "note": "[5b]", "values": [{"measurement": "IC50", "setting": "[1]", "result": "198 ± 9.5", "unit": "µM"}, {"measurement": "IC50", "setting": "[2]", "result": "286 ± 13.5", "unit": "µM"}]}, {"compound": "CCNC(=S)N/N=C/c1cccc(C[C@@H]2C[C@H]3C(=O)N(C)[C@@]4(C[C@H](C)CC[C@H]4C(C)C)N3O2)c1O", "note": "[5c]", "values": [{"measurement": "IC50", "setting": "[1]", "result": "73.1 ± 3.31", "unit": "µM"}, {"measurement": "IC50", "setting": "[2]", "result": "203 ± 10", "unit": "µM"}]}, {"compound": "CNC(=S)N/N=C/c1cccc(C[C@@H]2C[C@H]3C(=O)N(C)[C@@]4(C[C@H](C)CC[C@H]4C(C)C)N3O2)c1O", "note": "[5g]", "values": [{"measurement": "IC50", "setting": "[1]", "result": "64.2 ± 3.15", "unit": "µM"}, {"measurement": "IC50", "setting": "[2]", "result": "158 ± 7.09", "unit": "µM"}]}, {"compound": "CC(C)[C@@H]1CC[C@@H](C)C[C@@]12N(C)C(=O)[C@@H]1C[C@@H](Cc3cccc(/C=N/NC(N)=O)c3O)ON12", "note": "[5f]", "values": [{"measurement": "IC50", "setting": "[1]", "result": "26.7 ± 1.25", "unit": "µM"}, {"measurement": "fold improvement over acarbose, α-amylase", "setting": "[1]; versus acarbose IC50", "result": "about 11 fold"}, {"measurement": "Ki", "setting": "α-glucosidase", "result": 37, "unit": "µM"}, {"measurement": "mode of α-glucosidase inhibition", "setting": "α-glucosidase", "result": "competitive; also recorded: compete with the substrate for binding to the active site"}, {"measurement": "survival at 1600 mg/kg b.w.", "setting": "female mice; 1600 mg/kg b.w.", "result": "only one mouse was survived"}, {"measurement": "dose with no toxicity (no significant adverse effects or mortality)", "setting": "female mice", "result": "up to 1000 mg/kg b.w."}, {"measurement": "Ki", "setting": "α-amylase", "result": 24.9, "unit": "µM"}, {"measurement": "mode of α-amylase inhibition", "setting": "α-amylase", "result": "competitive inhibition"}, {"measurement": "IC50", "setting": "[2]", "result": "39.1 ± 1.83", "unit": "µM"}, {"measurement": "fold improvement over acarbose, α-glucosidase", "setting": "[2]; versus acarbose IC50", "result": "~20", "unit": "fold"}]}, {"compound": "CC(C)[C@@H]1CC[C@@H](C)C[C@@]12N(C)C(=O)[C@@H]1C[C@@H](Cc3cccc(/C=N/NC(=O)Nc4ccccc4)c3O)ON12", "note": "[5a]", "values": [{"measurement": "IC50", "setting": "[1]", "result": "151 ± 7.4", "unit": "µM"}, {"measurement": "IC50", "setting": "[2]", "result": "263 ± 12.2", "unit": "µM"}]}]}
